Reference: patent publication US10654866B2, “Selective estrogen receptor degraders” (Eli Lilly and Company, priority 2018, dated 2020)

Target: ERα (Homo sapiens (Human), UniProt P03372)
Experiment: ERα degradation assay in MCF7 cells
Type: cell-based
Details: 24 hours, % ER positive cells, read-out: Relative IC50
Procedure: The purpose of the following ERα degradation assay is to measure the degradation of ERα by a test compound in an ERα positive breast cancer cell line such as MCF7.
Culture MCF7 (purchased from ATCC HTB-22) cells in DMEM media supplemented with 10% FBS, 0.01 mg/mL human insulin 1 and 1% penicillin/streptomycin antibiotics and plate in 384-well flat-bottom plates at a density of 4,000 cells per well in phenol red free DMEM media (20 μL) containing 10% charcoal stripped FBS. Incubate the cells overnight in a cell culture incubator (5% CO2, 95% relative humidity and 37° C.) and allow the cells to attach to the plate. The following day dose the cells with the test compound. Use an Echo 555 acoustic dispenser to prepare test compound serial dilutions (1:3) in a range from 6 μM to 0.0003 μM. Dose the cells with the addition of 5 μL from the serial dilution plate to the cell plate producing a final DMSO concentration of 0.2% with a final test compound concentration dose range between 2 and 0.0001 μM. For the maximum point, use media containing 0.2% of DMSO and for the minimum point, use fulvestrant diluted at 2 μM final concentrations in the growth media containing 0.2% DMSO. After dosing with the test compound, incubate the cell plates at 37° C. and 5% CO2 for 24 hours. Fix the cells by adding 14% para-formaldehyde (10 μL) for 30 minutes at room temperature. Wash the cells once with PBS (20 μL) and incubate with PBS (20 μL) containing 0.5% (v/v) TWEEN® 20 for 1 hour. Wash the cells with PBS containing 0.05% TWEEN® 20 (2×) and block with 3% BSA in PBS containing 0.05% TWEEN® 20 and 0.1% TRITON™ X-100 (20 μL/well) for 1 hour at room temperature. Add 1:500 Primary antibody (20 μL) (ERα (Clone SP1) monoclonal rabbit antibody # RM-9101-S, Thermo Scientific) dilution in 1% BSA in PBS containing 0.05% TWEEN® 20 per well, seal the plates and incubate overnight at 4° C. The following day wash the cells with PBS containing 0.05% TWEEN® 20 (2×) and incubate with secondary antibody (20 μL/well) (1:1000 dilution, Goat anti-rabbit IgM ALEXA FLUOR™ 488) in PBS 1% BSA for 105 minutes at room temperature. […] Seal the plates and incubate 1 hour at room temperature on the bench (preserved from light). Scan the plates with ACUMEN EXPLORER™ [Laser-scanning fluorescence microplate cytometer manufactured by TTP LABTECH LTD] to measure ERα. Image analysis is based on cellular fluorescent signals for identifying positive cells. Identify ER positive cells by mean intensity. Use total intensity at 575-640 nm from propidium iodide/DNA to identify individual cells. Assay output is % ER positive cells. Determine the IC50 by curve fitting to a four parameter logistic for each output using GENE DATA™.

ERα, sequence (P03372 whole entry): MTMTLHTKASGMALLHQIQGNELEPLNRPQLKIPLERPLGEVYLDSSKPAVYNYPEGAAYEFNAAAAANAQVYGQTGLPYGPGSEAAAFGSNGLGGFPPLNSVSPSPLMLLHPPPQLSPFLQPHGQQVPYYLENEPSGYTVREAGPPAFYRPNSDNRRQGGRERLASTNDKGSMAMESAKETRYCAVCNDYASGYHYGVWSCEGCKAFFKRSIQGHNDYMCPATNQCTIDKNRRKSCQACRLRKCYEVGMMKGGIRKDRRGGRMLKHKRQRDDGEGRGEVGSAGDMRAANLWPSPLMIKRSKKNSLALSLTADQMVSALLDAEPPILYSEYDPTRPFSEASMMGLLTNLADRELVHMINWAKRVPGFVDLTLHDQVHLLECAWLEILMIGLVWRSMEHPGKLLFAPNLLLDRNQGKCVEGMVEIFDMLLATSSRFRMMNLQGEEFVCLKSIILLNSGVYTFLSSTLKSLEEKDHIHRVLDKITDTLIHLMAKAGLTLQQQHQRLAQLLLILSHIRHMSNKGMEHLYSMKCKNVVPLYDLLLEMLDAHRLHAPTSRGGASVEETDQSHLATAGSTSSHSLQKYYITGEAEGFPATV

| SMILES | DC50 [nM] |
| --- | --- |
| Oc1ccc2c3c(cnc2c1)-c1cccc(Cl)c1OC3c1ccc(OCCN2CC(CF)C2)cc1 (racemic) [Example 4, 7-chloro-5-(4-{2-[3-(fluoromethyl)azetidin-1-yl]ethoxy}phenyl)-5H-[1]benzopyrano[4,3-c]quinolin-2-ol] | 22.4 ± 0.355 |
| Oc1ccc2c3c(cnc2c1)-c1ccc(F)cc1OC3c1ccc(OCCN2CC(CF)C2)cc1 (racemic) [Example 5, 8-fluoro-5-(4-{2-[3-(fluoromethyl)azetidin-1-yl]ethoxy}phenyl)-5H-[1]benzopyrano[4,3-c]quinolin-2-ol] | 36.5 ± 37.4 |
| Cc1ccc2c(c1)OC(c1ccc(OCCN3CC(CF)C3)cc1)c1c-2cnc2cc(O)ccc12 (racemic) [Example 7, 5-(4-{2-[3-(fluoromethyl)azetidin-1-yl]ethoxy}phenyl)-8-methyl-5H-[1]benzopyrano[4,3-c]quinolin-2-ol] | 78.8 ± 7.38 |
| Cc1cccc2c1OC(c1ccc(OCCN3CC(CF)C3)cc1)c1c-2cnc2cc(O)ccc12 (racemic) [Example 8, 5-(4-{2-[3-(fluoromethyl)azetidin-1-yl]ethoxy}phenyl)-7-methyl-5H-[1]benzopyrano[4,3-c]quinolin-2-ol] | 17.4 ± 8.75 |
| Oc1ccc2c3c(cnc2c1)-c1cccc(Cl)c1OC3c1ccc(OCCN2CC(CF)C2)cc1 (single isomer, unassigned) [Example 4A, 7-Chloro-5-(4-{2-[3-(fluoromethyl)azetidin-1-yl]ethoxy}phenyl)-5H-[1]benzopyrano[4,3-c]quinolin-2-ol] | 500 |
| Oc1ccc2c3c(cnc2c1)-c1ccc(F)cc1OC3c1ccc(OCCN2CC(CF)C2)cc1 (single isomer, unassigned) [Example 5A, 8-Fluoro-5-(4-{2-[3-(fluoromethyl)azetidin-1-yl]ethoxy}phenyl)-5H-[1]benzopyrano[4,3-c]quinolin-2-ol] | 522 |
| Oc1ccc2c3c(cnc2c1)-c1ccc(F)cc1OC3c1ccc(OCCN2CC(CF)C2)cc1 (single isomer, unassigned) [Example 5B, 8-Fluoro-5-(4-{2-[3-(fluoromethyl)azetidin-1-yl]ethoxy}phenyl)-5H-[1]benzopyrano[4,3-c]quinolin-2-ol] | 9.49 ± 1.1 |

Second part, the compound after the results:

| DC50 [nM] | SMILES |
| --- | --- |
| 52.2 ± 6.51 | Oc1ccc2c3c(cnc2c1)-c1cccc(C(F)(F)F)c1OC3c1ccc(OCCN2CC(CF)C2)cc1 (racemic) [Example 2, 5-(4-{2-[3-(fluoromethyl)azetidin-1-yl]ethoxy}phenyl)-7-(trifluoromethyl)-5H-[1]benzopyrano[4,3-c]quinolin-2-ol] |
| 50.9 ± 6.89 | Oc1ccc2c3c(cnc2c1)-c1cccc(F)c1OC3c1ccc(OCCN2CC(CF)C2)cc1 (racemic) [Example 6, 7-fluoro-5-(4-{2-[3-(fluoromethyl)azetidin-1-yl]ethoxy}phenyl)-5H-[1]benzopyrano[4,3-c]quinolin-2-ol] |
| 51.2 ± 16.3 | Oc1ccc2c3c(cnc2c1)-c1cccc(C(F)(F)F)c1OC3c1ccc(OCCN2CC(CF)C2)cc1 (single isomer, unassigned) [Example 2A, 5-(4-{2-[3-(Fluoromethyl)azetidin-1-yl]ethoxy}phenyl)-7-(trifluoromethyl)-5H-[1]benzopyrano[4,3-c]quinolin-2-ol] |
| > 2000 | Oc1ccc2c3c(cnc2c1)-c1cccc(C(F)(F)F)c1OC3c1ccc(OCCN2CC(CF)C2)cc1 (single isomer, unassigned) [Example 2B, 5-(4-{2-[3-(Fluoromethyl)azetidin-1-yl]ethoxy}phenyl)-7-(trifluoromethyl)-5H-[1]benzopyrano[4,3-c]quinolin-2-ol] |
| 6.89 | Oc1ccc2c3c(cnc2c1)-c1cccc(Cl)c1OC3c1ccc(OCCN2CC(CF)C2)cc1 (single isomer, unassigned) [Example 4B, 7-Chloro-5-(4-{2-[3-(fluoromethyl)azetidin-1-yl]ethoxy}phenyl)-5H-[1]benzopyrano[4,3-c]quinolin-2-ol] |
| 175 | Oc1ccc2c3c(cnc2c1)-c1cccc(F)c1OC3c1ccc(OCCN2CC(CF)C2)cc1 (single isomer, unassigned) [Example 6A, 7-Fluoro-5-(4-{2-[3-(fluoromethyl)azetidin-1-yl]ethoxy}phenyl)-5H-[1]benzopyrano[4,3-c]quinolin-2-ol] |
| 9.13 | Oc1ccc2c3c(cnc2c1)-c1cccc(F)c1OC3c1ccc(OCCN2CC(CF)C2)cc1 (single isomer, unassigned) [Example 6B, 7-Fluoro-5-(4-{2-[3-(fluoromethyl)azetidin-1-yl]ethoxy}phenyl)-5H-[1]benzopyrano[4,3-c]quinolin-2-ol] |
| 234 | Cc1cccc2c1OC(c1ccc(OCCN3CC(CF)C3)cc1)c1c-2cnc2cc(O)ccc12 (single isomer, unassigned) [Example 8A, 5-(4-{2-[3-(Fluoromethyl)azetidin-1-yl]ethoxy}phenyl)-7-methyl-5H-[1]benzopyrano[4,3-c]quinolin-2-ol] |
| 9.62 ± 5.2 | Cc1cccc2c1OC(c1ccc(OCCN3CC(CF)C3)cc1)c1c-2cnc2cc(O)ccc12 (single isomer, unassigned) [Example 8B, 5-(4-{2-[3-(Fluoromethyl)azetidin-1-yl]ethoxy}phenyl)-7-methyl-5H-[1]benzopyrano[4,3-c]quinolin-2-ol] |
